In patent US20140079784A1, “AEROSOLIZED LFA-1 ANTAGONISTS FOR USE IN LOCALIZED TREATMENT OF IMMUNE RELATED DISORDERS” (SARCODE BIOSCIENCE INC., priority 2008, published 2014):
Like-named read-outs stand apart in the source and are kept apart here.

Legend:
[1] = system: human mononuclear cells (PBMC) stimulated with staphylococcal enterotoxin B (SEB); experiment: cells; format: cell-based
LFA-1 = target: T1, LFA-1 (Homo sapiens, UniProt P20701); conditions: >90% occupancy of LFA-1; cited from earlier work
T1 construct: >90% occupancy of LFA-1 with efalizumab led to a greater than 50% clinical improvement in PASI score in a clinical trial; host or cells: leukocytes of psoriasis patients (in vivo)
T1 sequence (P20701 26-1170): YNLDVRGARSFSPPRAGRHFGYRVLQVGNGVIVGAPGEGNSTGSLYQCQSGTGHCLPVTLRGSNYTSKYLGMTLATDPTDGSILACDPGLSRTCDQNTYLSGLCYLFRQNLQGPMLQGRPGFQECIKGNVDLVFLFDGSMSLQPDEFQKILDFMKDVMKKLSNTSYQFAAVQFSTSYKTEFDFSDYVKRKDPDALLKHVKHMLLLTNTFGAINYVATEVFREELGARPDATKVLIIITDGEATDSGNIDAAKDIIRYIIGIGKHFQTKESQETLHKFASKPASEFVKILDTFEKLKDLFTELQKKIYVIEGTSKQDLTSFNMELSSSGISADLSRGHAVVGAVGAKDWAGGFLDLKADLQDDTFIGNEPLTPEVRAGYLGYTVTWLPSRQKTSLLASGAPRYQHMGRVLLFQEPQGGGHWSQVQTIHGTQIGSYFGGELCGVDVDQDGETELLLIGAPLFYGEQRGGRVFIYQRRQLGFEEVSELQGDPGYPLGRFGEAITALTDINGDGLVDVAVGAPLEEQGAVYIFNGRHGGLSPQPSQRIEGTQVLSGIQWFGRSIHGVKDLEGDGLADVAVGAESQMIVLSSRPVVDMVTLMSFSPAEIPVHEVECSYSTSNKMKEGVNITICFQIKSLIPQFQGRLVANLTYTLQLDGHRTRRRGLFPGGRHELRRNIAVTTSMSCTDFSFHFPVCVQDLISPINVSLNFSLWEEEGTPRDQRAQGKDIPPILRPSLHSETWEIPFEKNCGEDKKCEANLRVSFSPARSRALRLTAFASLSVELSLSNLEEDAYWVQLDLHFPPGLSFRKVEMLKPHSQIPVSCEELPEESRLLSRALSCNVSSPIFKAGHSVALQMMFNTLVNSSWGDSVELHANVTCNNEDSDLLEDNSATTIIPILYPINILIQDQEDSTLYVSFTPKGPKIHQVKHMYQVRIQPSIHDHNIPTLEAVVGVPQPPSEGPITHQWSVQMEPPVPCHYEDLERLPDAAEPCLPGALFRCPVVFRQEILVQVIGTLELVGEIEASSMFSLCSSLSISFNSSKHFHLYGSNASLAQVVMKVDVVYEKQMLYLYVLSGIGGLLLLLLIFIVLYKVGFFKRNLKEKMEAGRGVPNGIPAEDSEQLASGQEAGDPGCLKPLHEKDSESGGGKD
T1 sequence (P05107 23-769 partner): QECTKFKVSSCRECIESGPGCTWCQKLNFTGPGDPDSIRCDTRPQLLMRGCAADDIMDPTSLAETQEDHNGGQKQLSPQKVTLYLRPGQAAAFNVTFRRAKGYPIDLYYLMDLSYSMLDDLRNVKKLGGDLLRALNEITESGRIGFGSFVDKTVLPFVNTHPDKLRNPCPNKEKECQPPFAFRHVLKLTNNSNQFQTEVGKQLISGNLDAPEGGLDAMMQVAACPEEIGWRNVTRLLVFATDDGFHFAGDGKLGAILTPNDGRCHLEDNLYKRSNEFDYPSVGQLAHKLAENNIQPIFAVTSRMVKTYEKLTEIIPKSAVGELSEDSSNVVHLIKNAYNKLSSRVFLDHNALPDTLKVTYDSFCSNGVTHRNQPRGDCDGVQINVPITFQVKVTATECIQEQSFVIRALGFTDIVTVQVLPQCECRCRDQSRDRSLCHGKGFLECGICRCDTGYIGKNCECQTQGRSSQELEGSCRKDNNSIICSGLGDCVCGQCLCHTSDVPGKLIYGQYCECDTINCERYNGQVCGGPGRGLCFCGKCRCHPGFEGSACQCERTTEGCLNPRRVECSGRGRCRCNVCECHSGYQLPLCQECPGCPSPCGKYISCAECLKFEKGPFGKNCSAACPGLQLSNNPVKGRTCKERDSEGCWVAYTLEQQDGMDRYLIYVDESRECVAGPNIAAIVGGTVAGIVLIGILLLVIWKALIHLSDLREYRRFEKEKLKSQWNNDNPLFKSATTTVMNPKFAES

Compound | EC50 ([1]; read-out: EC50 Cytokine Release GM-CSF) [µM] | EC50 ([1]; read-out: EC50 Cytokine Release IFNγ) [µM] | EC50 ([1]; read-out: EC50 Cytokine Release IL-1α) [µM] | EC50 ([1]; read-out: EC50 Cytokine Release IL-1β) [µM] | EC50 ([1]; read-out: EC50 Cytokine Release IL-2) [µM] | EC50 ([1]; read-out: EC50 Cytokine Release IL-3) [µM] | EC50 ([1]; read-out: EC50 Cytokine Release IL-4) [µM] | EC50 ([1]; read-out: EC50 Cytokine Release IL-5) [µM] | EC50 ([1]; read-out: EC50 Cytokine Release IL-6) [µM] | EC50 ([1]; read-out: EC50 Cytokine Release IL-10) [µM] | EC50 ([1]; read-out: EC50 Cytokine Release IL-12p40) [µM] | EC50 ([1]; read-out: EC50 Cytokine Release IL-13) [µM] | EC50 ([1]; read-out: EC50 Cytokine Release IP-10) [µM] | EC50 ([1]; read-out: EC50 Cytokine Release MCP-1) [µM] | EC50 ([1]; read-out: EC50 Cytokine Release MIP-1α) [µM] | EC50 ([1]; read-out: EC50 Cytokine Release TNF-α) [µM] | clinical improvement in PASI score (LFA-1)
O=C(NC(Cc1cc(=O)[nH]c2ccccc12)C(=O)O)c1ccc(Cl)cc1 (centres unmarked) [Rebamipide] | > 1000 | > 1000 | > 1000 | > 1000 | > 1000 | > 1000 | > 1000 | > 1000 | > 1000 | > 1000 | > 1000 | > 1000 | > 1000 | > 1000 | > 1000 | > 1000 | 
efalizumab: anti-LFA-1 (CD11a) antibody evaluated in plaque psoriasis |  |  |  |  |  |  |  |  |  |  |  |  |  |  |  |  | greater than 50%
